# Measurements published in patent US10392389B2, “Heterocyclic compounds for the inhibition of PASK” (BioEnergenix, LLC, priority 2012, dated 2019).
# Legend:
# [1] = target: T1, PIM1 (NP_002639; human full-length protein, 6×His tagged) (Homo sapiens, UniProt P11309); assay: Biochemical Assay for PIM1 Activity; details: 33P-ATP radiochemical assay, S6K/Rsk2 peptide 2 substrate
# T1 construct: human full-length protein, 6×His tagged; 6xHis; host or cells: insect cells
# Experimental: Biochemical Assay for PIM1 Activity
# (§1) Purified PIM1 (NP_002639; human full-length protein, 6×His tagged) from insect cells (final concentration 1.0 nM) is added to freshly prepared Base Reaction Buffer containing 20 mM Hepes (pH 7.5), 10 mM MgCl2, 1 mM EGTA, 0.02% Brij35, 0.02 mg/ml BSA, 0.1 mM Na3VO4, 2 mM DTT, 1% DMSO and substrate S6K/Rsk2 peptide 2 [KKRNRTLTK] (20 μM final). Test compounds in DMSO are then added and the mixture, followed by delivery of ^33P-ATP (specific activity 10 μCi/μl final) to initiate the reaction. The kinase reaction is incubated for 120 min at room temperature. The entire reaction mixture is washed through onto a P81 Phosphocellulose paper and washed three times for 10 minutes in 75 mM phosphoric acid and once in methanol prior to drying and scintillation counting.
# [2] = target: T2, CK2a2 (NP_001887; human full-length protein, GST tagged) (Homo sapiens, UniProt P19784); assay: Biochemical Assay for CK2 Activity; details: 33P-ATP radiochemical assay, CK2 sub [RRRDDDSDDD]
# T2 construct: human full-length protein, GST tagged; GST; host or cells: insect cells
# Experimental: Biochemical Assay for CK2 Activity
# as §1, with “Purified CK2a2 (NP_001887;” for “Purified PIM1 (NP_002639;”, “protein, GST” for “protein, 6×His”, “concentration 1.2” for “concentration 1.0”, “and CK2 sub [RRRDDDSDDD]” for “and substrate S6K/Rsk2 peptide 2 [KKRNRTLTK]”, “activity 0.01” for “activity 10”
# [3] = target: T3, PASK (UniProt #Q96RG2; human recombinant N-terminal GST tagged construct, residues 879-1323) (Homo sapiens, UniProt Q96RG2); assay: PASK ATP Radiochemical Assay; format: biochemical; details: 33P-ATP, Myelin Basic Protein substrate, read-out: IC50 Kinase Domain
# T3 construct: N-terminal GST tagged construct, residues 879-1323; GST (N); host or cells: insect cells
# Experimental: Biochemical Assay for hPASK Activity
# PASK ATP Radiochemical Assay
# as §1, with “Purified PASK (UniProt #Q96RG2;” for “Purified PIM1 (NP_002639;”, “human recombinant N-terminal GST tagged construct, residues 879-1323)” for “human full-length protein, 6×His tagged)”, “concentration 5” for “concentration 1.0”, “mM HEPES” for “mM Hepes”, “and Myelin Basic Protein” for “and substrate S6K/Rsk2 peptide 2 [KKRNRTLTK]”, “activity 0.01” for “activity 10”
# [4] = target: T4, PASK (Invitrogen) (Homo sapiens, UniProt Q96RG2); assay: PAS Kinase FRET Assay; format: biochemical; details: PAS kinase TR-FRET assay (665 nm/615 nm); read-out: IC50 Kinase Domain
# T4 construct: IC50 Kinase Domain; purchased Invitrogen
# How it was run: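 PASK phosphorylates a ULight-peptide with ATP in 50 mM HEPES, 10 mM MgCl2, 1 mM EGTA, 0.01% Tween-20, 2 mM DTT for 2 h at 25° C in the dark. Compounds are added as 4× serial dilutions (top 12×10^−5 M at 4×). After stopping, an Eu anti-phospho-substrate antibody is added for 1 h and TR-FRET is read at 665/615 nm.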
# T1 sequence (P11309 whole entry): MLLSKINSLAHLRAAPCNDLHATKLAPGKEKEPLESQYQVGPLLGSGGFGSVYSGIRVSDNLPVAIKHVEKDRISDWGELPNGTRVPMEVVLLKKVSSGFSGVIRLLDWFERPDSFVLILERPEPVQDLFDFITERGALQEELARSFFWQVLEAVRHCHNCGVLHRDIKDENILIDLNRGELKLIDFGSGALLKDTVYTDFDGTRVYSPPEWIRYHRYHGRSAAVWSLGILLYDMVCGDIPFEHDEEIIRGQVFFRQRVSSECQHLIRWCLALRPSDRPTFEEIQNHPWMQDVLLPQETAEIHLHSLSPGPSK
# T2 sequence (P19784 whole entry): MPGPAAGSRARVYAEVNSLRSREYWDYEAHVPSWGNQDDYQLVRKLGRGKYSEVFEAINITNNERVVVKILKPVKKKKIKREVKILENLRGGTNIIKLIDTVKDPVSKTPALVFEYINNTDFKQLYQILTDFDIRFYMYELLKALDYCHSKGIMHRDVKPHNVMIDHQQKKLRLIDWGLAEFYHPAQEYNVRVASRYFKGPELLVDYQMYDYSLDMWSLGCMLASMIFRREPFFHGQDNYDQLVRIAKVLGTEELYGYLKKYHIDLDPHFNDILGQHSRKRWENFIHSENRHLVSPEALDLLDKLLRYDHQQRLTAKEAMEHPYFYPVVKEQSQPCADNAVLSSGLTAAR
# T4 sequence (Q96RG2 999-1251 limits assumed): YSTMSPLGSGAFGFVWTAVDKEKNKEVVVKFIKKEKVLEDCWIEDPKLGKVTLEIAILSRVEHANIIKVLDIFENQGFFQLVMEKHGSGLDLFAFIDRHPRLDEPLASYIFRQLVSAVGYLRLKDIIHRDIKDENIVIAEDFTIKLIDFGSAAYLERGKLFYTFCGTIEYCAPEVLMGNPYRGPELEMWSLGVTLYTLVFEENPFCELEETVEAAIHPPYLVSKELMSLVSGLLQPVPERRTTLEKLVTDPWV
# T3 sequence (Q96RG2 879-1323, stated change not applied): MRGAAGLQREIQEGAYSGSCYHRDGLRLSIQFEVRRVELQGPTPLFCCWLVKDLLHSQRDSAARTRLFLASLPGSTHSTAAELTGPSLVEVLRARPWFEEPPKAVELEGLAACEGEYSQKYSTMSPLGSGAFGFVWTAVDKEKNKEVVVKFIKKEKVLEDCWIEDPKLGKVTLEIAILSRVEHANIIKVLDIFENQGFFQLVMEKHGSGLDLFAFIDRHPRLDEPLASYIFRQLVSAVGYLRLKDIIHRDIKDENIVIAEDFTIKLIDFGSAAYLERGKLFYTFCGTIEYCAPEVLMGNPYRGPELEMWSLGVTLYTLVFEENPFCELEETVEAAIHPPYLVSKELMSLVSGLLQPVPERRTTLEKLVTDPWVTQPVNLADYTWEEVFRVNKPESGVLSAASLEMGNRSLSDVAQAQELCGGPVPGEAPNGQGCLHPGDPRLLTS
SMILES,IC50 [1] [µM],IC50 [2] [µM],IC50 [3] [µM],IC50 [4] [µM]
"CCn1ncc2cc(-c3cc(=O)n4ncc(-c5n[nH]cc5C)c4[nH]3)ccc21 [Example 84, 5-(1-ethyl-1H-indazol-5-yl)-3-(4-methyl-1H-pyrazol-3-yl)-4H,7H-pyrazolo[1,5-a]pyrimidin-7-one]",≤ 10,≤ 10,≤ 10,≤ 10
"CCn1nccc1-c1cnn2c(=O)cc(-c3ccc(Cl)c(OC)c3)[nH]c12 [Example 65, 5-(4-chloro-3-methoxyphenyl)-3-(1-ethyl-1H-pyrazol-5-yl)pyrazolo[1,5-a]pyrimidin-7(4H)-one]",≤ 10,≤ 10,≤ 10,≤ 10
"CCn1nccc1-c1cnn2c(=O)cc(-c3ccc(Cl)c(Cl)c3)[nH]c12 [Example 95, 5-(3,4-dichlorophenyl)-3-(1-ethyl-1H-pyrazol-5-yl)pyrazolo[1,5-a]pyrimidin-7(4H)-one]",≤ 10,≤ 10,≤ 10,≤ 10
"Cn1ccc(-c2cnn3c(=O)cc(-c4ccc(Cl)c(OCC(F)(F)F)c4)[nH]c23)n1 [Example 96, 5-(4-chloro-3-(2,2,2-trifluoroethoxy)phenyl)-3-(1-methyl-1H-pyrazol-3-yl)pyrazolo[1,5-a]pyrimidin-7(4H)-one]",≤ 10,> 10,≤ 10,≤ 10
"CCn1ncc2cc(-c3cc(=O)n4ncc(-c5cc[nH]n5)c4[nH]3)ccc21 [Example 55, 5-(1-ethyl-1H-indazol-5-yl)-3-(1H-pyrazol-3-yl)pyrazolo[1,5-a]pyrimidin-7(4H)-one]",≤ 10,≤ 10,≤ 10,≤ 10
"COc1cc(-c2cc(=O)n3ncc(-c4ccn(C)n4)c3[nH]2)ccc1Cl [Example 54, 5-(4-chloro-3-methoxyphenyl)-3-(1-methyl-1H-pyrazol-3-yl)pyrazolo[1,5-a]pyrimidin-7(4H)-one]",≤ 10,≤ 10,≤ 10,≤ 10
"CCn1ncc2cc(-c3cc(=O)n4ncc(-c5ncco5)c4[nH]3)ccc21 [Example 20, 5-(1-Ethyl-1H-indazol-5-yl)-3-(1,3-oxazol-2-yl)-4H,7H-pyrazolo[1,5-a]pyrimidin-7-one]",≤ 10,≤ 10,≤ 10,≤ 10
"COc1cc(-c2cc(=O)n3ncc(-c4ncc(C)s4)c3[nH]2)ccc1Cl [Example 56, 5-(4-chloro-3-methoxyphenyl)-3-(5-methylthiazol-2-yl)pyrazolo[1,5-a]pyrimidin-7(4H)-one]",≤ 10,≤ 10,≤ 10,≤ 10
"CCn1ncc2cc(-c3cc(=O)n4ncc(-c5ncc(-c6ccccc6)o5)c4[nH]3)ccc21 [Example 64, 5-(1-ethyl-1H-indazol-5-yl)-3-(5-phenyloxazol-2-yl)pyrazolo[1,5-a]pyrimidin-7(4H)-one]",≤ 10,≤ 10,≤ 10,≤ 10

# The remaining lines, values ahead:
IC50 [1] [µM],IC50 [2] [µM],IC50 [3] [µM],IC50 [4] [µM],SMILES
≤ 10,≤ 10,≤ 10,≤ 10,"O=c1cc(-c2ccc3[nH]ncc3c2)[nH]c2c(-c3ncco3)cnn12 [Example 23, 5-(1H-indazol-5-yl)-3-(oxazol-2-yl)pyrazolo[1,5-a]pyrimidin-7(4H)-one]"
≤ 10,≤ 10,≤ 10,≤ 10,"Cc1cnc(-c2cnn3c(=O)cc(-c4ccc5onc(C)c5c4)[nH]c23)o1 [Example 91, 5-(3-methylbenzo[d]isoxazol-5-yl)-3-(5-methyloxazol-2-yl)pyrazolo[1,5-a]pyrimidin-7(4H)-one]"
≤ 10,≤ 10,≤ 10,≤ 10,"COc1cc(-c2cc(=O)n3ncc(-c4cc(C)n[nH]4)c3[nH]2)ccc1Cl [Example 69, 5-(4-chloro-3-methoxyphenyl)-3-(3-methyl-1H-pyrazol-5-yl)pyrazolo[1,5-a]pyrimidin-7(4H)-one]"
≤ 10,≤ 10,≤ 10,≤ 10,"COc1cc(-c2cc(=O)n3ncc(-c4nc(C)co4)c3[nH]2)ccc1Cl [Example 18, 5-(4-chloro-3-methoxyphenyl)-3-(4-methyl-1,3-oxazol-2-yl)-4H,7H-pyrazolo[1,5-a]pyrimidin-7-one]"
≤ 10,≤ 10,≤ 10,≤ 10,"Cn1ncc2cc(-c3cc(=O)n4ncc(-c5cc[nH]n5)c4[nH]3)ccc21 [Example 71, 5-(1-methyl-1H-indazol-5-yl)-3-(1H-pyrazol-3-yl)-4H,7H-pyrazolo[1,5-a]pyrimidin-7-one]"
≤ 10,≤ 10,≤ 10,≤ 10,"Cn1ccc(-c2cnn3c(=O)cc(-c4ccc5c(cnn5C)c4)[nH]c23)n1 [Example 83, 5-(1-methyl-1H-indazol-5-yl)-3-(1-methyl-1H-pyrazol-3-yl)pyrazolo[1,5-a]pyrimidin-7(4H)-one]"
≤ 10,≤ 10,≤ 10,≤ 10,"Cc1coc(-c2cnn3c(=O)cc(-c4ccc5c(c4)OCO5)[nH]c23)n1 [Example 4, 5-(2H-1,3-benzodioxol-5-yl)-3-(4-methyl-1,3-oxazol-2-yl)-4H,7H-pyrazolo[1,5-a]pyrimidin-7-one]"
≤ 10,≤ 10,≤ 10,≤ 10,"CCn1ncc2cc(-c3cc(=O)n4ncc(-c5noc6ccccc56)c4[nH]3)ccc21 [Example 59, 3-(benzo[d]isoxazol-3-yl)-5-(1-ethyl-1H-indazol-5-yl)pyrazolo[1,5-a]pyrimidin-7(4H)-one]"
≤ 10,≤ 10,≤ 10,≤ 10,"CCn1ncc2cc(-c3cc(=O)n4ncc(-c5oncc5C)c4[nH]3)ccc21 [Example 87, 5-(1-ethyl-1H-indazol-5-yl)-3-(4-methyl-1,2-oxazol-5-yl)-4H,7H-pyrazolo[1,5-a]pyrimidin-7-one]"
≤ 10,≤ 10,≤ 10,≤ 10,"CCn1nccc1-c1cnn2c(=O)cc(-c3ccc(Cl)c(OCC(F)(F)F)c3)[nH]c12 [Example 94, 5-(4-chloro-3-(2,2,2-trifluoroethoxy)phenyl)-3-(1-ethyl-1H-pyrazol-5-yl)pyrazolo[1,5-a]pyrimidin-7(4H)-one]"
≤ 10,≤ 10,≤ 10,≤ 10,"COc1cc(-c2cc(=O)n3ncc(-c4ncco4)c3[nH]2)ccc1Cl [Example 19, 5-(4-chloro-3-methoxyphenyl)-3-(1,3-oxazol-2-yl)-4H,7H-pyrazolo[1,5-a]pyrimidin-7-one]"
